For nine molecules, inhibition in vivo results are on record in patent US5298652A, “N-substituted glycines, inhibitors of phospholipase A2” (Hoffmann-La Roche Inc., priority 1992, dated 1994).

Molecules are shown by their SMILES.

The test system of the test is paw edema induced by phospholipase A2 from Naja naja venom. Nature of the test: Phospholipase A2 rat paw edema. It counts as in vivo, Lewis rats. As to conditions: 30 mg/kg ip, 1 hr prior to PLA2, 2 hr, read-out: % Inhib of PLA2 Paw Edema 2 hr 30 mg/kg ip.
For the molecule `CCCCCCCCCCCCCCCCCCOc1ccc(C(=O)C(=O)N(CC(=O)O)CC(=O)O)cc1` [Example 65, N-(Carboxymethyl)-N-[2-[4-(octadecyloxy)phenyl]-1,2-dioxoethyl]glycine], the inhibition in vivo at 30 mg/kg is 71%.
In the case of `CCCCCCCCCCCCCCCCCCOc1cccc(C(=O)N(CC(=O)O)CC(=O)O)c1` [Example 4, N-(Carboxymethyl)-N-[3-(octadecyloxy)benzoyl]glycine] it was 35%.
In the case of `CCCCCCCCCCCCCCCCCCOc1cc(OCCCOc2cccc(N)c2)cc(C(=O)N(CC(=O)O)CC(=O)O)c1` [Example 23, N-(Carboxymethyl)-N-[3-[3-(3-aminophenoxy)propoxy]-5-(octadecyloxy)benzoyl]glycine] it was 40%.
In the case of `CCCCCCCCCCOc1cc(OCCCCCCCCCC)cc(C(=O)C(=O)N(CC(=O)O)CC(=O)O)c1` [Example 73, N-(Carboxymethyl)-N-[[3,5-bis(decyloxy)phenyl]-1,2-dioxoethyl]glycine] it was 32%; in that of `CCCCCCCCCCCCCCCCCCOc1cc(OCCCOc2cccc([N+](=O)[O-])c2)cc(C(=O)N(CC(=O)O)CC(=O)O)c1` [Example 22, N-(Carboxymethyl)-N-[3-[3-(3-nitrophenoxy)propoxy]-5-(octadecyloxy)benzoyl]glycine], 64%; in that of `CCCCCCCCCCOc1cc(OCCCCCCCCCC)cc(C(=O)N(CC(=O)O)CC(=O)O)c1` [Example 11, N-(Carboxymethyl)-N-[3,5-bis(decyloxy)benzoyl]glycine], 0%.
Consider `CCCCCCCCCCCCCCCCCCOc1ccc(O)c(C(=O)N(CC(=O)O)CC(=O)O)c1` [Example 62, N-(carboxymethyl)-N-[2-hydroxy-5-(octadecyloxy)benzoyl]glycine], for which the inhibition in vivo at 30 mg/kg was 60%.
In the case of `CCCCCCCCCCCCCC(=O)Nc1cc(NC(=O)CCCCCCCCCCCCC)cc(C(=O)N(CC(=O)O)CC(=O)O)c1` [Example 56, N-(Carboxymethyl)-N-[3,5-bis(1-oxotetradecylamino)benzoyl]glycine] it was 57%; in that of `CCCCCCCCCCCCCCCCCCOc1cc(OCCOCCOCCOCC)cc(C(=O)N(CC(=O)O)CC(=O)O)c1` [Example 48, N-(carboxymethyl)-N-[3-[2-[2-(2-ethoxyethoxy)ethoxy]ethoxy]-(5-octadecyloxy)benzoyl]glycine], 43%.
